From patent US20210220328A1, “PYRROLE DERIVATIVES AS ACC INHIBITORS” (Almirall, S.A., priority 2017, published 2021)

Test system: immortalized human sebocyte cell line, SZ95
Assay: In vitro assay of inhibition of lipid synthesis
Format: cell-based
Details: 48 h, SZ95 sebocytes
Procedure: In Vitro Assay of Inhibition of Lipid Synthesis
To evaluate the inhibition of lipid synthesis, the immortalized human sebocyte cell line, SZ95 (stablished by Zouboulis, C. C. et al J Invest Dermatol 1999; 113:1011-20), was treated with arachidonic acid (AA) in presence or absence of compound. Lipids were detected by using a lipid sensing fluorophore.
Compounds were dissolved in dimethylsulfoxide (DMSO) 100%. Then the stocks were serial diluted 1/3 in DMSO 100%, and this battery of solutions were diluted 1/10 in culture medium, to minimize the percentage of the DMSO over cells.
10 k cells were plated in 384 well microtiter plates and incubated at 37° C. and 5% CO2 in DMEM/F12 supplemented with 10% FBS, 1.25 ng/ml of rhEGF and GA-1000 before of compound and stimulus addition. After 24 h, compounds dissolved in culture media were added over cells, diluting the solutions prepared 1/40 in the final volume of the assay. Then, cells and compounds were preincubated for 30 min at 37° C. and 5% CO2. After this prior incubation, the lipid synthesis was induced by 75 μM of AA final solution, preparing a solution 10× in culture media. Finally, SZ95 treated were incubated for 48 h at 37° C. and 5% CO2.
Neutral lipids were measured using AdipoRed™, purchased from LONZA. To do that, cells were washed with PBS and incubated with a solution of AdipoRed™ (final dilution 1/80 in PBS) for 30 min at room temperature. After the staining process, the fluorescence intensity (FI) was quantified using a fluorescence plate reader (excitation 485 nm; emission 535).
Activity of compounds were calculated as % of inhibition considering the maximal fluorescence for AA-stimulated cells and the minimum fluorescence for unstimulated cells as controls.

[1] = lipid synthesis induced by 75 μM arachidonic acid, AdipoRed fluorescence, Table 1
[2] = 75 μM arachidonic acid, AdipoRed, Table 2, finer classes for compounds with IC50 less than 250 nM

SMILES | IC50 [1] [nM] | IC50 [2] [nM]
CCCCCCCCCCCCc1c[nH]c(C(=O)OCCN2C(=O)CCC2=O)c1Cl [Example 60, 2-(2,5-dioxopyrrolidin-1-yl)ethyl 3-chloro-4-dodecyl-1H-pyrrole-2-carboxylate] | 1000 to 5000 | –
CCCCCCCCCCCCOc1c[nH]c(C(=O)OC(C)OC(=O)OCCCO)c1Cl (centres unmarked) [Example 87, 1-(((3-Hydroxypropoxy)carbonyl)oxy)ethyl 3-chloro-4-(dodecyloxy)-1H-pyrrole-2-carboxylate] | < 250 | < 50
CCCCCCCCCCCCCCCCc1c[nH]c(C(=O)O)c1Cl [Example 63, 3-Chloro-4-hexadecyl-1H-pyrrole-2-carboxylic acid] | 250 to 1000 | –
CCCCCCCCCCCCCCCc1c[nH]c(C(=O)O)c1F [Example 53, 3-Fluoro-4-pentadecyl-1H-pyrrole-2-carboxylic acid] | < 250 | < 50
CCCCCCCCCCCCCc1c[nH]c(C(=O)OCCN2CCCC2=O)c1F [Example 29, 2-(2-Oxopyrrolidin-1-yl)ethyl 3-fluoro-4-tridecyl-1H-pyrrole-2-carboxylate] | < 250 | 100 to 250
CCCCCCCCCCCCCc1cc(F)c(C(=O)O)[nH]1 [Example 120, 3-Fluoro-5-tridecyl-1H-pyrrole-2-carboxylic acid] | < 250 | < 50
CCCCCCCCCCCCCc1c[nH]c(C(=O)OCCCCCCCCCO)c1F [Example 39, 9-Hydroxynonyl 3-fluoro-4-tridecyl-1H-pyrrole-2-carboxylate] | < 250 | < 50
CCCCCCCCCCCCCc1c[nH]c(C(=O)OCCN2C(=O)CCC2=O)c1F [Example 28, 2-(2,5-Dioxopyrrolidin-1-yl)ethyl 3-fluoro-4-tridecyl-1H-pyrrole-2-carboxylate] | < 250 | 50 to 100
CCCCCCCCCCCCCc1c[nH]c(C(=O)OCCCCCO)c1F [Example 35, 5-Hydroxypentyl 3-fluoro-4-tridecyl-1H-pyrrole-2-carboxylate] | < 250 | 100 to 250
CCCCCCCCCC(F)(F)CCc1cc(Cl)c(C(=O)O)[nH]1 [Example 128, 3-Chloro-5-(3,3-difluorododecyl)-1H-pyrrole-2-carboxylic acid] | 250 to 1000 | < 50
CCCCCCCCCCCCCOc1c[nH]c(C(=O)O)c1Cl [Example 89, 3-Chloro-4-(tridecyloxy)-1H-pyrrole-2-carboxylic acid] | < 250 | < 50
CCCCCCCCCCCCCCOc1c[nH]c(C(=O)O)c1Cl [Example 90, 3-Chloro-4-(tetradecyloxy)-1H-pyrrole-2-carboxylic acid] | < 250 | 50 to 100
CCCCCCCCCCCCOc1c[nH]c(C(=O)OCCN2CCCC2=O)c1 [Example 4, 2-(2-Oxopyrrolidin-1-yl)ethyl 4-(dodecyloxy)-1H-pyrrole-2-carboxylate] | 1000 to 5000 | –
CCCCCCCCCOc1c[nH]c(C(=O)O)c1Cl [Example 77, 3-chloro-4-(nonyloxy)-1H-pyrrole-2-carboxylic acid] | < 250 | 50 to 100
CCCCCCCCCCCCCc1c[nH]c(C(=O)OC(C)OC(=O)OCCOCCOCC)c1F (centres unmarked) [Example 51, 4-Oxo-3,5,8,11-tetraoxatridecan-2-yl 3-fluoro-4-tridecyl-1H-pyrrole-2-carboxylate] | < 250 | < 50
CCCCCCCCCCCCCc1c[nH]c(C(=O)OCC(O)CO)c1F (centres unmarked) [Example 40, 2,3-Dihydroxypropyl 3-fluoro-4-tridecyl-1H-pyrrole-2-carboxylate] | < 250 | < 50
CCCCCCCCCCCCCCCCc1c[nH]c(C(=O)O)c1F [Example 132, 3-Fluoro-4-hexadecyl-1H-pyrrole-2-carboxylic acid] | < 250 | < 50
CCCCCCCCCCCCCc1cn(C(C)C)c(C(=O)O)c1F [Example 70, 3-Fluoro-1-isopropyl-4-tridecyl-1H-pyrrole-2-carboxylic acid] | 1000 to 5000 | –
CCCCCCCCCCCCc1cc(F)c(C(=O)O)[nH]1 [Example 55, 5-Dodecyl-3-fluoro-1H-pyrrole-2-carboxylic acid] | < 250 | 50 to 100
CCCCCCCCCCCCCc1c[nH]c(C(=O)OC(C)OC(=O)OCCOC)c1F (centres unmarked) [Example 49, 1-(((2-Methoxyethoxy)carbonyl)oxy)ethyl 3-fluoro-4-tridecyl-1H-pyrrole-2-carboxylate] | < 250 | < 50

SMILES | IC50 [1] [nM] | IC50 [2] [nM]
CCCCCCCCCCCCCc1c[nH]c(C(=O)OC(C)OC(=O)OCc2ccccc2)c1F (centres unmarked) [Example 48, 1-(((Benzyloxy)carbonyl)oxy)ethyl 3-fluoro-4-tridecyl-1H-pyrrole-2-carboxylate] | < 250 | < 50
CCCCCCCCCCCCCCc1cc(Cl)c(C(=O)O)[nH]1 [Example 67, 3-Chloro-5-tetradecyl-1H-pyrrole-2-carboxylic acid] | 250 to 1000 | –
CCCCCCCCCCCCCc1c[nH]c(C(=O)OC(C)(C)C)c1F [Example 24, Tert-butyl 3-fluoro-4-tridecyl-1H-pyrrole-2-carboxylate] | 250 to 1000 | –
CCCCCCCCCCCCc1cc(Cl)c(C(=O)OC(C)OC(=O)OCCOCCOCC)[nH]1 (centres unmarked) [Example 117, 4-Oxo-3,5,8,11-tetraoxatridecan-2-yl 3-chloro-5-dodecyl-1H-pyrrole-2-carboxylate] | < 250 | 100 to 250
CCCCCCCCCCCCc1c[nH]c(C(=O)O)c1F [Example 14, 4-Dodecyl-3-fluoro-1H-pyrrole-2-carboxylic acid] | < 250 | < 50
CCCCCCCCCCCCOc1c[nH]c(C(=O)OCC(F)(F)F)c1Cl [Example 81, 2,2,2-Trifluoroethyl 3-chloro-4-(dodecyloxy)-1H-pyrrole-2-carboxylate] | < 250 | 100 to 250
CCCCCCCCCCCCOc1c[nH]c(C(=O)OCc2oc(=O)oc2C)c1 [Example 11, (5-methyl-2-oxo-1,3-dioxol-4-yl)methyl 4-(dodecyloxy)-1H-pyrrole-2-carboxylate] | < 250 | 100 to 250
CCCCCCCCCCCCCc1c[nH]c(C(=O)OC(CO)CO)c1F [Example 41, 1,3-Dihydroxypropan-2-yl 3-fluoro-4-tridecyl-1H-pyrrole-2-carboxylate] | < 250 | < 50
CCCCCCCCCCCCc1cc(Cl)c(C(=O)OCC(F)(F)F)[nH]1 [Example 113, 2,2,2-Trifluoroethyl 3-chloro-5-dodecyl-1H-pyrrole-2-carboxylate] | 1000 to 5000 | –
CCCCCCCCCCCCCc1c[nH]c(C(=O)OC(C)OC(=O)OC(C)C)c1F (centres unmarked) [Example 44, 1-((Isopropoxycarbonyl)oxy)ethyl 3-fluoro-4-tridecyl-1H-pyrrole-2-carboxylate] | < 250 | < 50
CCCCCCCCCCCCCc1c[nH]c(C(=O)OCc2oc(=O)oc2C)c1F [Example 30, (5-Methyl-2-oxo-1,3-dioxol-4-yl)methyl 3-fluoro-4-tridecyl-1H-pyrrole-2-carboxylate] | < 250 | < 50
CCCCCCCCCCCCSc1c[nH]c(C(=O)O)c1F [Example 76, 4-(Dodecylthio)-3-fluoro-1H-pyrrole-2-carboxylic acid] | 1000 to 5000 | –
CCCCCCCCCCc1c[nH]c(C(=O)O)c1F [Example 12, 4-Decyl-3-fluoro-1H-pyrrole-2-carboxylic acid] | < 250 | < 50
CCCCCCCCCCCCc1c[nH]c(C(=O)OCCOCCOCC)c1F [Example 16, 2-(2-Ethoxyethoxy)ethyl 4-dodecyl-3-fluoro-1H-pyrrole-2-carboxylate] | < 250 | 50 to 100
CCCCCCCCCCCOc1c[nH]c(C(=O)O)c1Cl [Example 79, 3-Chloro-4-(undecyloxy)-1H-pyrrole-2-carboxylic acid] | < 250 | < 50
CCCCCCCCCCCCCCCc1cc(F)c(C(=O)O)[nH]1 [Example 122, 3-Fluoro-5-pentadecyl-1H-pyrrole-2-carboxylic acid] | < 250 | 50 to 100
CCCCCCCCCCOc1c[nH]c(C(=O)O)c1Cl [Example 78, 3-Chloro-4-(decyloxy)-1H-pyrrole-2-carboxylic acid] | < 250 | < 50
CCCCCCCCCCCCOc1c[nH]c(C(=O)OC(C)OC(=O)OCCOCCOCC)c1Cl (centres unmarked) [Example 86, 4-Oxo-3,5,8,11-tetraoxatridecan-2-yl 3-chloro-4-(dodecyloxy)-1H-pyrrole-2-carboxylate] | < 250 | < 50
CCCCCCCCCCCCCCCCc1cc(F)c(C(=O)O)[nH]1 [Example 123, 3-Fluoro-5-hexadecyl-1H-pyrrole-2-carboxylic acid] | < 250 | 50 to 100
CCCCCCCCCCCCc1cc(Cl)c(C(=O)OCCOCCOCC)[nH]1 [Example 114, 2-(2-Ethoxyethoxy)ethyl 3-chloro-5-dodecyl-1H-pyrrole-2-carboxylate] | 1000 to 5000 | –
